Measured values: patent publication US6540996B1, “Compound screening methods” (priority 1999, dated 2003)

Legend:
[1] = tested on: C. elegans; assay: plate (drop) assay: nematodes fed E. coli lawn pre-loaded with the compound; assay type: in vivo
Protocol: (§1) Using two kinds of assays, the optimal concentration of compounds that inhibit the activity SERCA has been determined. The first assay is designated the drop or plate assay in which the nematodes are fed E. coli strains pre-loaded with the compound. In a second assay, the compound is administrated to the worm in liquid culture.
A standard plate drop assay is performed according to the following protocol. 4 ml NGM agar (see “The nematode C. elegans” Ed. by William B. Wood and the Community of C. elegans Researchers, CSHL Press, 1988, pg589) is into 3 cm plates and seeded with approximately 5 μl of an E. coli overnight culture and grown preferably for one week at room temperature. Approximately 10 μl of test compound dissolved in DMSO or other suitable solvent is pipetted onto the bacterial lawn so that the lawn is covered completely. After overnight soaking in or compound, one C. elegans (L4 stage) per plate is put onto the bacterial lawn. Plates are incubated at 21° C. and checked after some hours.

[2] = tested on: C. elegans; assay: liquid assay: compound administered to the worm in liquid culture; assay type: in vivo
Text: as §1

[3] = tested on: C. elegans strain UG530 (harboring plasmid pGK28); assay: thapsigargin sensitivity of worms carrying the pGK28 (Phe259Val SERCA) transgene; assay type: in vivo; conditions: for stage reached by progeny on thapsigargin: 10 μl drops of 5 to 0.05 mM thapsigargin in DMSO, 5 days
Protocol: FIG. 3 illustrates the growth of C. elegans strain UG530 (strain harboring plasmid pGK28) on different concentrations of thapsigargin. The stage of the progeny was determined 5 days after adults were put on the plates. […] These were differentiated based on a GFP marker also present on this transgene.
The effect of thapsigargin on worms carrying a pGK28 transgene was measured in the following way: 10 μl of thapsigargin dissolved in DMSO (5, 2.5, 1, 0.5, 0.25, 0.1, and 0.05 mM respectively) was added onto a drop of E. coli strain OP50cs2 in 12-well plates. The wells with compounds were placed at 10 C. overnight, after which […] young adults were added to the wells. The pharynx pumping rate and movement behaviour was scored for the ten worms after 10 minutes and after one hour (short term effect). Furthermore the wells were scored for protruding vulva and rectum, production of progeny (few eggs in body) after one day (mid-term-effects), and for progeny after four days (long term effect)

[4] = tested on: C. elegans wild-type worms and mutant strain unc-31; assay: effect on pharynx pumping behaviour; assay type: in vivo
Protocol: The effect of thapsigargin on pharynx pumping behaviour was also determined. In wild-type worms, all animals stopped pumping after 10 minutes.

[5] = tested on: C. elegans strains unc-31 and srf-3; assay: production of progeny after thapsigargin treatment in different C. elegans strains; assay type: in vivo
Protocol: The effect of thapsigargin on the production of progeny was determined for a number of different C. elegans strains. The numbers of progeny produced following thapsigargin treatment was counted for an average of 15 animals, the results are summarised as follows: […]

[6] = tested on: SERCA Phe256Val; conditions: substitution Phe256Val in hamsters (Yu et al., 1999); cited from earlier work
[7] = mutant strain unc-31, 1 mM thapsigargin

O=C1C=CC(=O)C=C1 [1,4-benzoquinone]
observable effect at the highest concentration tested ([1]; 100 mM drop, 500 μM end concentration): did not result in a clear observable effect

CC(C)(C)c1cc(O)c(C(C)(C)C)cc1O [2,5-di-tert butylhydroquinone]
phenotype of the worms ([1]; 500 μM): pale, starved, thin worms with slow movement, defective gonad, constipated and reduced brood size | phenotype of worms and progeny ([2]; 1 mM): progeny exhibiting delayed growth and the worms be observed to be thinner

C/C=C(/C)C(=O)O[C@H]1C(C)=C2[C@H]([C@@H]1OC(=O)CCCCC)[C@@](C)(OC(C)=O)C[C@H](OC(=O)CCC)[C@@]1(O)[C@H]2OC(=O)[C@@]1(C)O [Thapsigargicin]
brood size ([1]; lower concentrations 3 μM and 1.5 μM): slightly reduced brood size | phenotype of worms and progeny ([2]; 1000 μM, 250 μM, 62.5 μM and 16 μM): small worms with slow and loopy movement, a protruding vulva, and no progeny (or no progeny that grows up) | growth and progeny ([2]; lower concentration 10 μM): delayed growth and reduced progeny

C/C=C(/C)C(=O)O[C@H]1C(C)=C2[C@H]([C@@H]1OC(=O)CCCCCCC)[C@@](C)(OC(C)=O)C[C@H](OC(=O)CCC)[C@@]1(O)[C@H]2OC(=O)[C@@]1(C)O [thapsigargin]
appearance and movement of the worms ([1]; 5 μM, 2.5 μM and 1.25 μM): pale and thin and have a slow and irregular movement, with an increased amplitude | brood size ([1]; 5 μM, 2.5 μM and 1.25 μM): very small | gonad, eggs and vulva ([1]; 5 μM, 2.5 μM and 1.25 μM): defective gonad with only very few eggs, and a protruding vulva | plate drop response, backing, pumping, constipation ([1]; 5 μM, 2.5 μM and 1.25 μM): No plate drop response is observed, and the worms show poor backing, reduced pumping and strong constipation | rectum ([1]; 5 μM, 2.5 μM and 1.25 μM): Some worms also have a protruding rectum | restart of pharynx pumping ([1]; 5 μM, 2.5 μM and 1.25 μM): Within an hour the worms restart pumping, although at a low level | time until the nematode stops pharynx pumping ([1]; 5 μM, 2.5 μM and 1.25 μM): ≤ 10 min | stage reached by progeny ([1]; 5 μM, 2.5 μM and 1.25 μM, after four days): Progeny reaches L2 stage only after four days | brood size ([1]; lower concentrations 0.5 μM, 0.25 μM, 0.125 μM): reduced brood size | stage reached by progeny on thapsigargin ([3]; GFP-animals harboring pGK28 (Phe259Val SERCA)): grew up to adult or L4 | amount of progeny on thapsigargin ([3]; nematodes harboring the Phe259Val SERCA mutant compared with wild-type): slightly more progeny than wild-type | stage reached by progeny on thapsigargin ([3]; non-GFP animals (not harboring the mutated SERCA)): arrested at L1 and L2 and never grew up further than L3 | protruding vulva and rectum-phenotype ([3]; strain UG530 (harboring pGK28) treated with thapsigargin): not or were only occasionally observed | protruding vulva and rectum-phenotype ([3]; wild-type nematodes treated with thapsigargin): very often observed | pumping speed after restart [4, 7]: one third of normal speed | restart of pumping [4, 7]: some start again after half an hour | time after which all worms stopped pumping [4, 7]: 10 min | time after which all animals stopped pumping ([4]; wild-type worms): 10 min | number of progeny produced ([5]; strain srf-3, 1 mM thapsigargin, average of 15 animals (control 50)): 18,3 | number of progeny produced ([5]; strain unc-31, 0.5 mM thapsigargin, average of 15 animals (control 132)): 35 | number of progeny produced ([5]; strain unc-31, 1 mM thapsigargin, average of 15 animals (control 132)): 5,6 | size and movement of the worms ([2]; 100, 50 and 20 μM): small worms which show slow and loopy movement | vulva and progeny ([2]; 100, 50 and 20 μM): protruding vulva, and no progeny (or no progeny that grows up) | progeny and growth ([2]; lower concentrations 10 μM and 5 μM): reduced number of progeny and delayed growth | resistance to thapsigargin inhibition [6]: 40 fold
